We go through 11 compounds from patent publication US20110105389A1 (priority 2009, published 2011).

Values joined by “and” are separate entries in the source; they are usually repeats but may differ in a detail not shown here. Identical values can stand only once.

Data set [1] addresses T1, human ghrelin receptor (GRLN, growth hormone secretagogue receptor, hGHS-R1a) (Homo sapiens, UniProt Q92847).
T1 construct: purchased PerkinElmer BioSignal #RBHGHSM, lot#1887; host or cells: HEK-293 cells, stably transfected (membranes)
As to the kind of experiment: Competitive radioligand binding assay (ghrelin receptor), Method B1. In outline: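 Membranes incubated with compound 30 min at rt in 25 mM Hepes pH 7.4, 1 mM CaCl2, 5 mM MgCl2, 2.5 mM EDTA, 0.4% BSA, max 0.1% DMSO; filtered on PEI-soaked GF/C, washed with cold Tris, scintillation counted. Curves fitted by variable-slope non-linear regression.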

In the next data set the target is CYP3A4 (Homo sapiens, UniProt P08684). The data set is described as follows: biochemical.
Chain of CYP3A4 (P08684 whole entry): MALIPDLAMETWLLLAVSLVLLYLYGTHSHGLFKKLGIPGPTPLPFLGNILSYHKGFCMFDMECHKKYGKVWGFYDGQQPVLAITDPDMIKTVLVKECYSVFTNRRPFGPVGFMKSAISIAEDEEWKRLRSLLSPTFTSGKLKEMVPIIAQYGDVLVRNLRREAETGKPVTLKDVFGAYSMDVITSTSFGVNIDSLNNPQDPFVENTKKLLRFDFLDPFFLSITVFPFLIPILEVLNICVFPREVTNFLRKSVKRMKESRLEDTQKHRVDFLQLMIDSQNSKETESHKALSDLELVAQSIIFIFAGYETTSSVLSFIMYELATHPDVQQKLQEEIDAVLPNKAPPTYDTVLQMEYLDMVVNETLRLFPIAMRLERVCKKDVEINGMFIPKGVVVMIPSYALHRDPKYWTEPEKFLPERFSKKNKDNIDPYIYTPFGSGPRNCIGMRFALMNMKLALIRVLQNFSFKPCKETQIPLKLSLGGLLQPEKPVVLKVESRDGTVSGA
Data set [2] has as its system rat stomach fundus strips. As to the kind of experiment: Ex-vivo potency evaluation on the rat stomach fundus (inhibition of ghrelin-induced contractility), Method B10. As to conditions: EFS. In outline: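 Male Wistar rat fundus strips in Krebs at 37 °C (5% CO2 in O2), 1.5 g resting tension, were subjected to EFS (0.5 ms pulses, 5 Hz, 70 V, 30 s every 3 min) with isometric tension recording. Responses were expressed as % of mean pre-drug EFS responses; IC50 for inhibiting ghrelin-induced contractility was determined.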

Data set [3] can be described thus: Plasma protein binding (equilibrium dialysis), Method B5. Type of data set: in vitro ADME. To be noted: human plasma, 60 min at 37° C., typically 10 μM. The text has this:
B5. Plasma Protein Binding
The pharmacokinetic and pharmacodynamic properties of drugs are largely a function of the reversible binding of drugs to plasma or serum proteins such as albumin and α1-acid glycoprotein. In general, only unbound drug is available for diffusion or transport across cell membranes, and for interaction at the pharmacological target. On the other hand, drugs with low plasma protein binding generally have large volumes of distribution and rapid clearance since only unbound drug is available for glomerular filtration and, in some cases, hepatic clearance. Thus, the extent of plasma protein binding can influence efficacy, distribution and elimination. The ideal range for plasma protein binding is in the range of 87-98% for most drug products.
Protein binding studies were performed using human plasma. Briefly, 96-well microplates were used to incubate various concentrations of the test article for 60 min at 37° C. A concentration of 10 μM was a typical selection to be employed in this study. Bound and unbound fractions are separated by equilibrium dialysis, where the concentration remaining in the unbound fraction is quantified by LC-MS or LC-MS-MS analysis. […].

In a further data set the target is CYP2D6 (Homo sapiens, UniProt P10635). The data set is described as follows: biochemical.
Chain of CYP2D6 (P10635 whole entry): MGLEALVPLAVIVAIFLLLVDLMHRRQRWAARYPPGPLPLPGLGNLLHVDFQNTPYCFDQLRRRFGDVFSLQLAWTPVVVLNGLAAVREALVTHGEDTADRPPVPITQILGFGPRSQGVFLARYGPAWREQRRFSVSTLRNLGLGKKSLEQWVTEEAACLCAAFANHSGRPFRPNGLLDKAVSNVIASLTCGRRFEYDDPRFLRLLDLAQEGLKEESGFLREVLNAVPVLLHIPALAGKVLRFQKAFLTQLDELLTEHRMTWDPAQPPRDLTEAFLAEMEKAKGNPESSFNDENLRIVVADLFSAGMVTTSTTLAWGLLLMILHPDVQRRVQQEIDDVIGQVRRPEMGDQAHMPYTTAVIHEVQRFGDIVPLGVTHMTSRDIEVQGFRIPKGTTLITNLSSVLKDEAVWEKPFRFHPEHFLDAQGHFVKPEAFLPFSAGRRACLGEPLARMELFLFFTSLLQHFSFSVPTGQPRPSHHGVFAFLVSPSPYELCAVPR
A short description of data set [4]: Pharmacokinetic analysis (intravenous and oral), Method B9. Type of data set: in vivo. Put shortly:
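Compound concentration was typically 2 mg/mL for intravenous and 8 mg/mL for oral dosing. PK parameters such as elimination half-life and total plasma clearance were derived.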

Where [5] appears, read: plasma, Table 10b, 2 mg/mL intravenous typically employed.

T1 sequence (Q92847 whole entry): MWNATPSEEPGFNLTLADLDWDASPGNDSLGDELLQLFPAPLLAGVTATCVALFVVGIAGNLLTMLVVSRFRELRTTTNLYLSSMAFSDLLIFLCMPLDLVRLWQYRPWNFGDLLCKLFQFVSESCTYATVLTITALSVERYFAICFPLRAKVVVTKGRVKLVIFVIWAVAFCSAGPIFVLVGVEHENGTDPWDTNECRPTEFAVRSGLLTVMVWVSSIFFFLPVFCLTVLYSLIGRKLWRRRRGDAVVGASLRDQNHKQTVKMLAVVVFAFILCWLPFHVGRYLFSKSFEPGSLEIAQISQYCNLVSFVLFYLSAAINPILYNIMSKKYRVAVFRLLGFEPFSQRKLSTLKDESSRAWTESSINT

With `Cc1cccc(C[C@H]2NC(=O)[C@H](C(C)O)N(C)C(=O)[C@H](C(C)C)NCCOc3ccccc3C[C@H](O)CNC2=O)c1` (stereo partly drawn) [Compound 1453], the IC50 in data set [1] was 0.001 to 0.01 µM; against CYP3A4, 13.4 µM and 3.7 µM; in data set [2] it was 2.9 µM; at CYP2D6, 9.21 µM and 9.2 µM. The compound also had a free fraction (fraction unbound) at 60 min, 10 μM in data set [3] of 0.243.
Consider `CC(C)[C@@H]1NCCOc2ccccc2C[C@H](O)[C@@H](C)NC(=O)[C@@H](Cc2cccc(F)c2)NC(=O)[C@H](C(C)O)N(C)C1=O` (stereo partly drawn) [Compound 1503], for which the IC50 in data set [1] is 0.001 to 0.01 µM; against CYP3A4 it was 14.3 µM; in data set [2], 0.65 µM; against CYP2D6, 55.8 µM. The compound further gave a fraction unbound at 60 min, 10 μM in data set [3] of 0.221.
On to `CC[C@@H]1CCc2ccc(F)cc2OCCN[C@@H](C(C)C)C(=O)N(C)[C@@H](C(C)O)C(=O)N[C@H](Cc2c[nH]c3ccccc23)C(=O)N1` (stereo partly drawn) [Compound 1505], for which the 50% inhibitory concentration (IC50) in data set [1] is 0.001 to 0.01 µM; against CYP3A4, 0.7 µM; in data set [2], 0.0125 µM; against CYP2D6 it was 2.1 µM. In addition, in data set [4] (in vivo, po), the “Oral F” value was determined as 18%. Further, the half-life in data set [4] (plasma) came to 1.07 h. The compound also yielded a clearance in data set [4] (plasma, intravenous) of 23 mL/min/kg. In addition, in data set [3], the unbound share (fraction unbound) at 60 min, 10 μM is 0.036.
As to `CC(C)[C@@H]1NCCOc2ccccc2C#C[C@@H](C)NC(=O)[C@@H](Cc2ccccc2)NC(=O)[C@H](C(C)O)N(C)C1=O` (stereo partly drawn) [Compound 1688], the half-inhibitory concentration (IC50) in data set [1] was 0.001 to 0.01 µM; at CYP3A4, 8.5 µM; in data set [2], 0.0001 µM; on CYP2D6 it was 20.2 µM. Also, the fraction unbound at 60 min, 10 μM in data set [3] was determined as 0.091.
Regarding `CC(O)[C@H]1C(=O)N[C@H](Cc2ccccc2)C(=O)NCCCc2cccc3c2OC(CC3)CN[C@@H](C2CC2)C(=O)N1C` (stereo partly drawn) [Compound 1778], the 50% inhibitory concentration (IC50) in data set [1] is 0.01 to 0.1 µM; at CYP3A4, 7.7 µM; in data set [2] it was 0.012 µM; against CYP2D6, 21.1 µM. In data set [4] (setting [5]), this compound returned a clearance of 26 ± 18 mL/min/kg. The same compound gave a half-life in data set [4] (setting [5]) of 0.983 ± 0.633 h. The fraction unbound at 60 min, 10 μM in data set [3] is 0.076.
Regarding `CC[C@@H]1NCC2CCc3cccc(c3O2)CCCNC(=O)[C@@H](Cc2ccccc2)NC(=O)[C@H](C(C)O)N(C)C1=O` (stereo partly drawn) [Compound 1780], the IC50 in data set [1] is 0.01 to 0.1 µM; against CYP3A4 it was 6 µM; in data set [2], 0.0121 µM; against CYP2D6, 35.7 µM. Further, in data set [3], the unbound share (fraction unbound) at 60 min, 10 μM was 0.061.
In the case of `CC(C)[C@@H]1NCCOc2ccccc2C2CCC(C2)NC(=O)[C@@H](Cc2ccccc2)NC(=O)[C@H](C(C)O)N(C)C1=O` (stereo partly drawn) [Compound 1848], the IC50 against CYP3A4 came out at 8 µM; in data set [2], 0.015 µM; against CYP2D6, 14.1 µM. The F in data set [4] (Oral, 8 mg/kg) was 11 ± 2%. Also, in data set [4] (Oral, 8 mg/kg, individual values), the Tmax was 30/30. The AUC(0-inf) in data set [4] (plasma, Intravenous, 2 mg/kg) was 2600 ng·h/mL; in data set [4] (plasma, Oral, 8 mg/kg), 1110 ng·h/mL. Moreover, in data set [4] (plasma, Intravenous, 2 mg/kg), the clearance is 17 ± 9 mL/min/kg. For the same compound, the half-life in data set [4] (plasma, Intravenous, 2 mg/kg) came out at 1.8 ± 0.85 h. Moreover, the Vd in data set [4] (plasma, Intravenous, 2 mg/kg, read-out: Vz) turned out to be 2.55 ± 1.47 L/kg. In addition, the Cmax in data set [4] (plasma, Oral, 8 mg/kg, read-out: Cmax) stood at 421 ± 16 ng/mL. Further, the free fraction (fraction unbound) at 60 min, 10 μM in data set [3] is 0.207.
`CC(O)[C@H]1C(=O)N[C@H](Cc2ccccc2)C(=O)NCC#Cc2c(F)cccc2OCCN[C@@H](C2(C)CC2)C(=O)N1C` (stereo partly drawn) [Compound 1876]: the half-maximal inhibitory concentration (IC50) in data set [1] is 0.001 to 0.01 µM; against CYP3A4 it was 8.5 µM; in data set [2] it was 0.06 µM; against CYP2D6 it was 23.1 µM. In addition, in data set [4] (plasma, Table 10b, 2 mg/mL intravenous and 8 mg/mL oral typically employed), the bioavailability was 54 ± 19%. The compound also had a clearance in data set [4] (setting [5]) of 28 ± 8 mL/min/kg. Also, the half-life in data set [4] (setting [5]) amounted to 2.65 ± 0.267 h. In addition, the fraction unbound at 60 min, 10 μM in data set [3] is 0.05.
With `CC(O)[C@H]1C(=O)N[C@H](Cc2ccccc2)C(=O)NCC#Cc2ccccc2OCCN[C@@H](C2(C)CC2)C(=O)N1C` (stereo partly drawn) [Compound 1878], the IC50 in data set [1] is 0.001 to 0.01 µM; at CYP3A4 it was 11.6 µM; in data set [2], 0.03 µM; against CYP2D6 it was 45.3 µM. Besides, the clearance in data set [4] (setting [5]) came to 35 ± 1 mL/min/kg. Besides, the half-life in data set [4] (setting [5]) is 2.07 ± 0.317 h. Moreover, in data set [3], the fraction unbound at 60 min, 10 μM is 0.127.
Take `CC(C)[C@@H]1NCCOc2ccccc2C2CCC(C2)NC(=O)[C@@H](Cc2ccc(F)cc2)NC(=O)[C@H](C(C)O)N(C)C1=O` (stereo partly drawn) [Compound 1903]: the figures for the half-maximal inhibitory concentration (IC50) (on CYP3A4; in data set [2]; at CYP2D6) were 9 µM, 0.0016 µM and 8 µM, respectively. Moreover, the fraction unbound at 60 min, 10 μM in data set [3] is 0.159.
For `CC(O)[C@H]1C(=O)N[C@H](Cc2ccccc2)C(=O)NCC#Cc2ccc(F)cc2OCCN[C@@H](C2(C)CC2)C(=O)N1C` (stereo partly drawn) [Compound 1918], the IC50 in data set [1] is 0.001 to 0.01 µM; on CYP3A4 it was 16.3 µM; in data set [2] it was 0.026 µM; at CYP2D6, 8.1 µM. The clearance in data set [4] (setting [5]) was 14 ± 7 mL/min/kg. This compound came in with a half-life in data set [4] (setting [5]) of 1.9 ± 0.883 h.
